Counter-ions that a name gives are not always drawn.
System: Acinetobacter baumannii ATCC 17978
Test: Antimicrobial susceptibility testing: 90% growth inhibitory concentration (IC90) determination
Assay type: cell-based
Conditions: 90% growth inhibitory concentration; Acinetobacter baumannii ATCC17978; Iso-Sensitest broth, OD 600 nm over 16h; read-out: ATCC17978 IC90
Summary of the method: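 Compounds serially twofold diluted (e.g. 50 to 0.097 μM final) in Iso-Sensitest broth, inoculated at ~5×10^(5) CFU/ml, incubated at 35±2° C. OD600 read every 20 minutes over 16h. IC90 taken as concentration inhibiting 90% of growth during logarithmic phase.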

SMILES | IC90 [nM]
CCc1cc(Nc2nccn3c(-c4ccc(OC)c(F)c4F)cnc23)ccc1C(=O)NCCCCCCCN [Example 517, N-(7-aminoheptyl)-4-((3-(2,3-difluoro-4-methoxyphenyl)imidazo[1,2-a]pyrazin-8-yl)amino)-2-ethylbenzamide hydrochloride] | 67
CCc1cc(Nc2nccn3c(-c4ccc(OC)c(F)c4F)cnc23)ccc1C(=O)N[C@H](CN)C(=O)OC [Example 310, methyl (2R)-3-amino-2-[[4-[[3-(2,3-difluoro-4-methoxyphenyl)imidazo[1,2-a]pyrazin-8-yl]amino]-2-ethylbenzoyl]amino]propanoate; hydrochloride] | 800

Same assay, conditions: Acinetobacter baumannii, ATCC17978, 16 h, 90% growth inhibitory concentration; Acinetobacter baumannii ATCC17978; Iso-Sensitest broth, OD 600 nm over 16h; read-out: ATCC17978 IC90

SMILES | IC90 [nM]
COc1ccc(-c2cnc3c(Nc4ccc(C(=O)NCCCN)c(C)c4F)nccn23)c(F)c1F [Example 479, N-(3-aminopropyl)-4-((3-(2,3-difluoro-4-methoxyphenyl)imidazo[1,2-a]pyrazin-8-yl)amino)-3-fluoro-2-methylbenzamide] | 490
CCc1cc(Nc2nccn3c(-c4ccc(OC)c(F)c4F)cnc23)ccc1C(=O)NCCNC(=O)[C@H](N)CCCNC(=N)N [Example 125, N-[2-[[(2R)-2-amino-5-guanidino-pentanoyl]amino]ethyl]-4-[[3-(2,3-difluoro-4-methoxy-phenyl)imidazo[1,2-a]pyrazin-8-yl]amino]-2-ethyl-benzamide formate] | 120
N#CCOc1ccc(-c2cnc3c(Nc4ccc(C(=O)NCC5CCNCC5)c(Cl)c4)nccn23)c(F)c1F [Example 79, 2-chloro-4-[[3-[4-(cyanomethoxy)-2,3-difluoro-phenyl]imidazo[1,2-a]pyrazin-8-yl]amino]-N-(4-piperidylmethyl) benzamide] | 90
CCc1cc(Nc2nccn3c(-c4ccc(OC)c(F)c4F)cnc23)ccc1C(=O)NCCN1CCN(CCCC(=O)O)CC1 [Example 444, 4-(4-(2-(4-((3-(2,3-difluoro-4-methoxyphenyl)imidazo[1,2-a]pyrazin-8-yl)amino)-2-ethylbenzamido)ethyl)pipera-zin-1-yl)butanoic acid] | 320
CCc1cc(Nc2nccn3c(-c4ccc(OC)c(F)c4F)cnc23)ccc1C(=O)NCC1CCN(CCC2CCCN2)CC1 (centres unmarked) [Example 556, 4-[[3-(2,3-difluoro-4-methoxy-phenyl)imidazo[1,2-a]pyrazin-8-yl]amino]-2-ethyl-N-[[1-(2-pyrrolidin-2-ylethyl)-4-piperidyl]methyl]benzamide] | 310
CCc1cc(Nc2nccn3c(-c4ccc(OC)c(F)c4F)cnc23)ccc1C(=O)NCCNC(=O)[C@@H](N)CCN [Example 399, N-[2-[[(2S)-2,4-diaminobutanoyl]amino]ethyl]-4-[[3-(2,3-difluoro-4-methoxy-phenyl)imidazo[1,2-a]pyrazin-8-yl]amino]-2-ethyl-benzamide; formic acid] | 380
COc1ccc(-c2cnc3c(Nc4ccc(C(=O)NCCCS(=O)(=O)N5CCNCC5)c(C)c4)nccn23)c(F)c1F [Example 68, 4-((3-(2,3-difluoro-4-methoxyphenyl)imidazo [1,2-a]pyrazin-8-yl)amino)-2-methyl-N-(3-(piperazin-1-ylsulfonyl)propyl) benzamide] | 170
COc1ccc(-c2cnc3c(Nc4ccc(C(=O)NCCCN5CCNC(C(=O)O)C5)c(Cl)c4)nccn23)c(F)c1F (centres unmarked) [Example 314, 4-[3-[[2-chloro-4-[[3-(2,3-difluoro-4-methoxyphenyl)imidazo[1,2-a]pyrazin-8-yl]amino]benzoyl]amino]pro-pyl]piperazine-2-carboxylic acid;formic acid] | 1300
CCc1cc(Nc2nccn3c(-c4ccc(OC(F)F)c(F)c4F)cnc23)ccc1C(=O)NCCCO[C@@H]1O[C@H](CO)[C@@H](O)[C@H](O)[C@H]1O [Example 442, 4-((3-(4-(difluoromethoxy)-2,3-difluorophenyl)imidazo[1,2-a]pyrazin-8-yl)amino)-2-ethyl-N-(3-(((2R,3R,4S,5S,6R)-3,4,5-trihydroxy-6-(hydroxymethyl)tetrahydro-2H-pyran-2-l)oxy)propyl)benzamide] | 410
CCN(C(=O)NCCCN(C)C)C(=O)c1ccc(Nc2nccn3c(-c4ccc(OCC#N)c(F)c4F)cnc23)cc1Cl [REF 149, 2-chloro-4-[[3-[4-(cyanomethoxy)-2,3-difluoro-phenyl]imidazo[1,2-a]pyrazin-8-yl]amino]-N-[3-(dimethylamino)propylcarbamoyl]-N-ethyl-benzamide] | 450
CCc1cc(Nc2nccn3c(-c4ccc(Oc5nccc(C)n5)c(F)c4F)cnc23)ccc1C(=O)N[C@@H](C)CNC(=O)[C@@H](N)CCNC(=N)N [Example 455, N-((S)-1-((S)-2-amino-4-guanidinobutanamido)propan-2-yl)-4-((3-(2,3-difluoro-4-((4-methylpyrimidin-2-yl)oxy)phenyl)imidazo[1,2-a]pyrazin-8-yl)amino)-2-ethylbenzamide formiate 1:2] | 720

Second part, the molecule after the results:

IC90 [nM] | SMILES
34 | COc1ccc(-c2cnc3c(Nc4ccc(C(=O)NCCCCCCN)c(Cl)c4)nccn23)c(F)c1F [Example 495, N-(6-aminohexyl)-2-chloro-4-((3-(2,3-difluoro-4-methoxyphenyl)imidazo[1,2-a]pyrazin-8-yl)amino)benzamide hydrochloride]
210 | COc1ccc(-c2cnc3c(Nc4ccc(C(=O)N(C)CCC(=O)N5CCNCC5)c(C)c4)nccn23)cc1F [Example 3, 4-[[3-(3-fluoro-4-methoxy-phenyl)imidazo[1,2-a]pyrazin-8-yl]amino]-N,2-dimethyl-N-(3-oxo-3-piperazin-1-yl-propyl)benzamide]
33 | CCc1cc(Nc2nccn3c(-c4ccc(OC)c(F)c4F)cnc23)ccc1C(=O)NCCCCCN [Example 418, N-(5-aminopentyl)-4-((3-(2,3-difluoro-4-methoxyphenyl)imidazo[1,2-a]pyrazin-8-yl)amino)-2-ethylbenzamide hydrochloride]
270 | COc1ccc(-c2cnc3c(Nc4ccc(C(=O)NCCN5CCNCC5)c(Cl)c4)nccn23)cc1F [Example 188, 2-chloro-4-[[3-(3-fluoro-4-methoxyphenyl)imidazo[1,2-a]pyrazin-8-yl]amino]-N-(2-piperazin-1-ylethyl)benzamide;hydrochlo-ride]
5000 | COc1ccc(-c2cnc3c(Nc4ccc(C(=O)NCCCN(C)C)cc4)nccn23)cc1Cl [Example 263, 4-[[3-(3-chloro-4-methoxyphenyl)imidazo[1,2-a]pyrazin-8-yl]amino]-N-[3-(dimethylamino)propyl]benz-amide]
690 | Cc1cc(Nc2nccn3c(-c4ccc(Cl)c(F)c4F)cnc23)ccc1C(=O)NCCCN [Example 214, N-(3-aminopropyl)-4-[[3-(4-chloro-2,3-difluorophenyl)imidazo[1,2-a]pyrazin-8-yl]amino]-2-methylbenzamide;hydrochlo-ride]
200 | CNC(=O)c1ccc(Nc2nccn3c(-c4ccc(OC(F)F)cc4)cnc23)cc1Br [Example 93, 2-bromo-4-((3-(4-(difluoromethoxy)phenyl)imidazo[1,2-a]pyrazin-8-yl)amino)-N-methylbenzamide]
360 | COc1ccc(-c2cnc3c(Nc4ccc(C(=O)NCCCCN)c(C)c4)nccn23)cc1 [Example 194, N-(4-aminobutyl)-4-[[3-(4-methoxyphenyl)imidazo[1,2-a]pyrazin-8-yl]amino]-2-methylbenzamide;hydrochlo-ride]
890 | COc1ccc(-c2cnc3c(Nc4ccc(C(=O)NCC5CCSCC5)c(Cl)c4)nccn23)c(F)c1F [Example 42, 2-chloro-4-[[3-(2,3-difluoro-4-methoxy-phenyl)imidazo[1,2-a]pyrazin-8-yl]amino]-N-(tetrahydrothiopyran-4-ylmethyl)benzamide]
700 | COc1ccc(-c2cnc3c(Nc4ccc(C(=O)NCC5CCOC5)c(C)c4)nccn23)cc1F (centres unmarked) [Example 70, 4-((3-(3-fluoro-4-methoxyphenyl)imidazo [1,2-a]pyrazin-8-yl)amino)-2-methyl-N-((tetrahydrofuran-3-yl)methyl)benzamide]
3400 | Cc1cc(Nc2nccn3c(-c4ccc(OC(F)F)cc4)cnc23)ccc1C(=O)N(C)CC(=O)N1CCOCC1 [Example 279, 4-[[3-[4-(difluoromethoxy)phenyl]im-idazo[1,2-a]pyrazin-8-yl]amino]-N,2-dimethyl-N-(2-morpholin-4-yl-2-oxoethyl)benzamide]
150 | COc1ccc(-c2cnc3c(Nc4ccc(C(=O)NCC5CCN(C(=N)N)CC5)c(Cl)c4)nccn23)cc1F [Example 296, N-[(1-carbamimidoylpiperidin-4-yl)methyl]-2-chloro-4-[[3-(3-fluoro-4-methoxyphenyl)imidazo[1,2-a]pyrazin-8-yl]amino]benzamide]
180 | CCc1cc(Nc2nccn3c(-c4ccc(OCC#N)c(F)c4F)cnc23)ccc1C(=O)NCCCN [Example 299, N-(3-aminopropyl)-4-[[3-[4-(cyanomethoxy)-2,3-difluorophenyl]imidazo[1,2-a]pyrazin-8-yl]amino]-2-ethylbenzamide;2,2,2-trifluoroacetic acid]
880 | CCc1cc(Nc2nccn3c(-c4ccc(Oc5nccs5)c(F)c4F)cnc23)ccc1C(=O)NCCCN [Example 482, #N!-(3-aminopropyl)-4-[[3-[2,3-difluoro-4-(1,3-thiazol-2-yloxy)phenyl]imidazo[1,2-a]pyrazin-8-yl]amino]-2-ethylbenzamide]
2800 | Cc1cc(Nc2nccn3c(-c4ccc(OC(F)F)cc4)cnc23)ccc1C(=O)NCC(=O)N1CCOCC1 [Example 252, 4-[[3-[4-(difluoromethoxy)phenyl]im-idazo[1,2-a]pyrazin-8-yl]amino]-2-methyl-N-(2-morpholin-4-yl-2-oxoethyl)benzamide]
1100 | COc1ccc(-c2cnc3c(Nc4ccc(C(=O)NCCCCCNC(=O)OC(C)(C)C)c(C)c4)nccn23)cc1 [Example 223, tert-butyl N-[5-[[4-[[3-(4-methoxyphenyl)imidazo[1,2-a]pyrazin-8-yl]amino]-2-methylbenzoyl]amino]pentyl] carbamate]

— US20230012368A1 (Hoffmann-La Roche Inc., priority 2018, published 2023)
